Laboratory results from the supplement of paper PMC10307832.

Columns and labels:
Experiment in all cases: relative viability (nuclei count vs DMSO), 5 days (fraction); higher = more cells survive
CUDC-101 + Crizotinib = compound: C#Cc1cccc(Nc2ncnc3cc(OC)c(OCCCCCCC(=O)NO)cc23)c1 [CUDC-101] + C[C@@H](Oc1cc(-c2cnn(C3CCNCC3)c2)cnc1N)c1c(Cl)ccc(F)c1Cl [Crizotinib] (partner 1 µM)
How it was run: (§1)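 Relative viability equals treated-well nuclei counts divided by vehicle-well nuclei counts. Counts came from 4× images of lung cancer cell lines grown in 1536-well plates for 5 days after pin-tool dosing on the day after seeding. Dosing used one drug alone or a fixed anchor-drug dose plus five library-drug doses (not always all listed) in √10 steps, and values are medians of duplicate plates.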

[1] = compound: C1=CC=C2C(=C1)N=C(S2)C(C#N)C3=NC(=NC=C3)NCCC4=CN=CC=C4 + CC(=O)c1c(C)c2cnc(Nc3ccc(N4CCNCC4)cn3)nc2n(C2CCCC2)c1=O [Palbociclib] (partner 0.5 µM)
How it was run: as §1

[2] = compound: C1=CC=C2C(=C1)N=C(S2)C(C#N)C3=NC(=NC=C3)NCCC4=CN=CC=C4 + Cc1nc(Nc2ncc(C(=O)Nc3c(C)cccc3Cl)s2)cc(N2CCN(CCO)CC2)n1 [Dasatinib] (partner 0.075 µM)
How it was run: as §1

Vandetanib + Lapatinib = compound: COc1cc2/c(=N/c3ccc(Br)cc3F)nc[nH]c2cc1OCC1CCN(C)CC1 [Vandetanib] + CS(=O)(=O)CCNCc1ccc(-c2ccc3ncnc(Nc4ccc(OCc5cccc(F)c5)c(Cl)c4)c3c2)o1 [Lapatinib] (partner 2 µM)
How it was run: as §1

| Cell Line | relative viability (CUDC-101 + Crizotinib; first compound 0.01 µM) | relative viability (CUDC-101 + Crizotinib; first compound 0.03162 µM) | relative viability (CUDC-101 + Crizotinib; first compound 0.1 µM) | relative viability (CUDC-101 + Crizotinib; first compound 0.3162 µM) | relative viability (CUDC-101 + Crizotinib; first compound 1 µM) | relative viability ([1]; first compound 0.005 µM) | relative viability ([1]; first compound 0.01581 µM) | relative viability ([1]; first compound 0.05 µM) | relative viability ([1]; first compound 0.1581 µM) | relative viability ([1]; first compound 0.5 µM) | relative viability ([2]; first compound 0.005 µM) | relative viability ([2]; first compound 0.01581 µM) | relative viability ([2]; first compound 0.05 µM) | relative viability ([2]; first compound 0.1581 µM) | relative viability ([2]; first compound 0.5 µM) | relative viability (Vandetanib + Lapatinib; first compound 0.02 µM) | relative viability (Vandetanib + Lapatinib; first compound 0.06325 µM) | relative viability (Vandetanib + Lapatinib; first compound 0.2 µM) | relative viability (Vandetanib + Lapatinib; first compound 0.6325 µM) | relative viability (Vandetanib + Lapatinib; first compound 2 µM) |
| --- | --- | --- | --- | --- | --- | --- | --- | --- | --- | --- | --- | --- | --- | --- | --- | --- | --- | --- | --- | --- |
| NCI-H2009 | 1.02 | 0.992 | 1.11 | 0.991 | 1.03 | 0.223 | 0.168 | 0.215 | 0.229 | 0.206 | 0.257 | 0.25 | 0.261 | 0.324 | 0.267 | 0.848 | 0.887 | 1.04 | 0.981 | 1.06 |
| NCI-H647 | 1.27 | 1.03 | 1.09 | 0.909 | 0.533 | 0.376 | 0.407 | 0.372 | 0.378 | 0.442 | 0.128 | 0.188 | 0.219 | 0.24 | 0.135 | 1.02 | 1.09 | 1.09 | 1.08 | 0.999 |
| NCI-H1666 | 0.91 | 0.969 | 1.15 | 1.09 | 0.791 | 0.64 | 0.654 | 0.632 | 0.631 | 0.657 | 0.603 | 0.754 | 0.734 | 0.838 | 0.818 | 0.59 | 0.658 | 0.444 | 0.739 | 0.629 |
| A-427 | 1.05 | 0.868 | 0.773 | 0.829 | 0.579 | 0.542 | 0.5 | 0.519 | 0.525 | 0.56 | 0.66 | 0.743 | 0.764 | 0.688 | 0.822 | 0.968 | 1.02 | 1.14 | 1.01 | 0.74 |
| NCI-H2170 | 1.14 | 1.23 | 1.17 | 1.2 | 0.732 | 0.284 | 0.391 | 0.38 | 0.43 | 0.34 | 0.447 | 0.498 | 0.501 | 0.675 | 0.611 | 0.264 | 0.253 | 0.225 | 0.271 | 0.269 |
| NCI-H650 | 0.835 | 0.783 | 0.771 | 0.532 | 0.454 | 0.321 | 0.336 | 0.301 | 0.321 | 0.323 | 0.43 | – | 0.405 | 0.589 | 0.476 | 1.06 | 1.04 | 0.636 | 0.896 | 0.308 |
| NCI-H1437 | 1.13 | 0.862 | 0.963 | 0.941 | 0.916 | 0.372 | 0.329 | 0.327 | 0.312 | 0.304 | 0.363 | 0.303 | 0.528 | 0.562 | 0.376 | 0.758 | 0.767 | 0.764 | 0.76 | 0.806 |
| HCC-366 | 0.531 | 0.535 | 0.557 | 0.5 | 0.372 | 0.302 | 0.44 | 0.364 | 0.375 | 0.282 | 0.591 | 0.848 | 0.539 | 0.824 | 0.676 | 0.931 | 0.978 | 1.18 | 1.18 | 1.09 |
